# Data reported in ChEMBL document CHEMBL1143194, “The 1,4-benzodiazepine-2,5-dione small molecule template results in melanocortin receptor agonists with nanomolar potencies” (J Med Chem, 2008).
# How the values were obtained:
# Melanocortin receptor 4 = Melanocortin receptor 4 (Mus musculus, UniProt P56450); assay: Agonist activity at mouse MC4R expressed in HEK293 cells assessed as forskolin-stimulated response by beta-galactosidase reporter gene assay; type: functional, cell-based
# [1] = biological target: Melanocyte-stimulating hormone receptor (Mus musculus, UniProt Q01727); assay: Agonist activity at mouse MC1R expressed in HEK293 cells assessed as forskolin-stimulated response by beta-galactosidase reporter gene assay; type: functional, cell-based
# Melanocyte-stimulating hormone receptor, sequence (Q01727 whole entry): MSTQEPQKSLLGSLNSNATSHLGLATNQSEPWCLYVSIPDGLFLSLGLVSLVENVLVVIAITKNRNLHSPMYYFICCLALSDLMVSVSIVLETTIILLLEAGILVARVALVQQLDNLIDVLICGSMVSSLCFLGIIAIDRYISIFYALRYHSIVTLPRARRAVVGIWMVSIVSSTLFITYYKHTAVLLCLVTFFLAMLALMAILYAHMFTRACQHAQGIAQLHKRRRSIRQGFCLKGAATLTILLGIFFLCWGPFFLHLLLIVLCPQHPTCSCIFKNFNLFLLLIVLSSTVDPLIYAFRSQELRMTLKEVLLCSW
# Melanocortin receptor 5 = Melanocortin receptor 5 (Mus musculus, UniProt P41149); assay: Agonist activity at mouse MC5R expressed in HEK293 cells assessed as forskolin-stimulated response by beta-galactosidase reporter gene assay; type: functional, cell-based
# Melanocortin receptor 5, sequence (P41149 whole entry): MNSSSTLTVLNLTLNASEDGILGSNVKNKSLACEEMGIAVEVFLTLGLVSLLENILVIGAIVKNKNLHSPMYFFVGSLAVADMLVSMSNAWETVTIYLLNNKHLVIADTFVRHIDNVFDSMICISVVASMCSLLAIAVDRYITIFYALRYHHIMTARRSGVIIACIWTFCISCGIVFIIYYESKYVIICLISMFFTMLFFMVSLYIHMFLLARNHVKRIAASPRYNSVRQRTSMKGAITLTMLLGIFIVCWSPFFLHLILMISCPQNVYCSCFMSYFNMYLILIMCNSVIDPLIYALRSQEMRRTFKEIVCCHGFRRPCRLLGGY
# Melanocortin receptor 3 = Melanocortin receptor 3 (Mus musculus, UniProt P33033); assay: Agonist activity at mouse MC3R expressed in HEK293 cells assessed as forskolin-stimulated response by beta-galactosidase reporter gene assay; type: functional, cell-based
# Melanocortin receptor 3, sequence (P33033 whole entry): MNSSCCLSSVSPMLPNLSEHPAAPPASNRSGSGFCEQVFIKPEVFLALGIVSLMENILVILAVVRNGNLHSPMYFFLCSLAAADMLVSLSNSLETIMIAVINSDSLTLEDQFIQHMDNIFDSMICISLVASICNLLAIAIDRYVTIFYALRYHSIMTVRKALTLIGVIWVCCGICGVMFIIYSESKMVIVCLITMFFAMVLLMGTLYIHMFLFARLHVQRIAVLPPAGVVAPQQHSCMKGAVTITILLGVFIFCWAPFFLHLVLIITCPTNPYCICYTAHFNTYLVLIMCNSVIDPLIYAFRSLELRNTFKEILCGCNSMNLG
# [2] = biological target: Melanocortin receptor 4 (Mus musculus) (UniProt P56450); assay: Agonist activity at mouse MC4R expressed in HEK293 cells assessed as forskolin-stimulated response at 100 uM by beta-galactosidase reporter gene assay relative to forskolin; type: functional, cell-based
# Melanocortin receptor 4 (Mus musculus), sequence (P56450 whole entry): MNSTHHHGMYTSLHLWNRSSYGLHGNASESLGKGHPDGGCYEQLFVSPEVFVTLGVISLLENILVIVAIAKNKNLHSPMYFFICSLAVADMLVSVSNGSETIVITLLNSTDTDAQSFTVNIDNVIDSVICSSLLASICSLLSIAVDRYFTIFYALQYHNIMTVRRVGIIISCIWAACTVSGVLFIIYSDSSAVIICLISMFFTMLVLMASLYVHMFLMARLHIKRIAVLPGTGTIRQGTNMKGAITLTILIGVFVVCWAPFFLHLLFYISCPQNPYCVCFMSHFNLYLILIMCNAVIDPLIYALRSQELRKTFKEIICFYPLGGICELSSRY
# [3] = biological target: Melanocortin receptor 3 (Mus musculus) (UniProt P33033); assay: Agonist activity at mouse MC3R expressed in HEK293 cells assessed as forskolin-stimulated response at 100 uM by beta-galactosidase reporter gene assay relative to forskolin; type: functional, cell-based
# Melanocortin receptor 3 (Mus musculus), sequence (P33033 whole entry): as the sequence (P33033 whole entry) above
# Mus musculus [4] = organism: Mus musculus; assay: Selectivity for mouse MC1R over mouse MC3R
# [5] = biological target: Melanocortin receptor 5 (Mus musculus) (UniProt P41149); assay: Agonist activity at mouse MC5R expressed in HEK293 cells assessed as forskolin-stimulated response at 100 uM by beta-galactosidase reporter gene assay relative to forskolin; type: functional, cell-based
# Melanocortin receptor 5 (Mus musculus), sequence (P41149 whole entry): as the sequence (P41149 whole entry) above
# Mus musculus [6] = organism: Mus musculus; assay: Selectivity for mouse MC1R over mouse MC4R
# [7] = biological target: Melanocyte-stimulating hormone receptor (Mus musculus) (UniProt Q01727); assay: Agonist activity at mouse MC1R expressed in HEK293 cells assessed as forskolin-stimulated response at 100 uM by beta-galactosidase reporter gene assay relative to forskolin; type: functional, cell-based
# Melanocyte-stimulating hormone receptor (Mus musculus), sequence (Q01727 whole entry, looked up): as the sequence (Q01727 whole entry) above
# [8] = biological target: Melanocortin receptor 5 (Mus musculus) (UniProt P41149); assay: Agonist activity at mouse MC5R expressed in HEK293 cells assessed as forskolin-stimulated response at 10 uM by beta-galactosidase reporter gene assay relative to forskolin; type: functional, cell-based
# Melanocortin receptor 4, sequence (P56450 whole entry): as the sequence (P56450 whole entry) above
EC50 (Melanocortin receptor 4),EC50 [1],EC50 (Melanocortin receptor 5),EC50 (Melanocortin receptor 3),Structure (SMILES),further results
0.24 µM,0.048 µM,0.087 µM,0.32 µM,NCCCCC1NC(=O)c2ccc(Cl)cc2N(Cc2ccccc2)C1=O (stereo not given),–
–,1.8 µM,17 µM,30.6 µM,NC(N)=NCCCC1NC(=O)c2ccc(Cl)cc2N(Cc2ccccc2)C1=O (stereo not given),–
–,4.7 µM,4.35 µM,23.3 µM,O=C1NC(Cc2ccccc2)C(=O)N(Cc2ccc3ccccc3c2)c2cc(Cl)ccc21 (stereo not given),Activity [2]: 70%
–,3.4 µM,–,–,NCCCCC1NC(=O)c2ccc(Cl)cc2N(Cc2ccc3ccccc3c2)C1=O (stereo not given),Activity [8]: 65%; Activity [3]: 30%; Activity [2]: 30%
> 100 µM,16.4 µM,> 100 µM,> 100 µM,NC(N)=NCCCC1NC(=O)c2ccccc2N(Cc2ccccc2)C1=O (stereo not given),–

# Further lines, the compound ahead of its results:
Structure (SMILES),EC50 (Melanocortin receptor 4),EC50 [1],EC50 (Melanocortin receptor 5),EC50 (Melanocortin receptor 3),further results
O=C1NC(Cc2c[nH]c3ccccc23)C(=O)N(Cc2ccc3ccccc3c2)c2cc(Cl)ccc21 (stereo not given),> 100 µM,> 100 µM,> 100 µM,> 100 µM,–
N=C(N)NCCCC1NC(=O)c2ccc(Cl)cc2N(Cc2ccccc2)C1=O (stereo not given),–,–,–,–,Activity [2]: 60%
CCCN1C(=O)C(Cc2ccccc2)NC(=O)c2ccccc21 (stereo not given),35 µM,6.9 µM,3.27 µM,–,Activity [3]: 80%
O=C1NC(Cc2ccccc2)C(=O)N(Cc2ccccc2-c2ccccc2)c2ccccc21 (stereo not given),1.97 µM,0.23 µM,–,4.16 µM,Ratio EC50 (Mus musculus [4]): 18; Activity [5]: 60%; Ratio EC50 (Mus musculus [6]): 9
O=C1NC(Cc2c[nH]c3ccccc23)C(=O)N(Cc2ccccc2)c2ccccc21 (stereo not given),> 100 µM,–,> 100 µM,> 100 µM,Activity [7]: 70%
O=C1NC(Cc2ccccc2)C(=O)N(Cc2ccccc2)c2ccccc21 (stereo not given),> 100 µM,32.9 µM,> 100 µM,> 100 µM,–
CCCCN1C(=O)C(Cc2ccccc2)NC(=O)c2ccccc21 (stereo not given),> 100 µM,–,> 100 µM,> 100 µM,Activity [7]: 70%
Cc1cccc2c1N(Cc1ccccc1)C(=O)C(Cc1cn(Cc3ccccc3)c3ccccc13)NC2=O (stereo not given),> 100 µM,21.6 µM,> 100 µM,> 100 µM,–
